Test results published in patent US11447504B2, “Macrocyclic chlorine substituted indole derivatives” (Bayer Aktiengesellschaft, priority 2017, dated 2022).
Where a name gives a salt, the structure may show the parent alone. Read-outs that look alike come from different tables or passages of the source.

Assays:
SUDHL5 [1] = assay: Induction of cytotoxicity (Assay 6), SUDHL5
Protocol: Assay 6 Induction of Cytotoxicity Upon Treatment of Cells with Selected Compounds
Therefore, cytotoxicity assays were run in parallel in SUDHL5 and SUDHL10 cells.
The different cell lines were plated in culture medium (RPMI 1640 [GIBCO #22400-089]supplemented with 10% Fetal Bovine Serum) at a density of 3,300 cells in 30 μL/well in a sterile, solid black, flat bottom, polystyrene, TC-treated 384-well microplate (Corning #3571) using Multidrop Combi Reagent Dispenser. As a control, medium without cells was also added to the plate. Cells were incubated in a humidified incubator at 37° C. overnight. […] Rim wells were excluded. The cells were incubated for 5 hours in a humidified incubator at 37° C. After this incubation, 30 μL of CellTiter-Glo® Luminescent Cell Viability reagent (Promega, G7573) was added to each well using the Multidrop Combi Reagent Dispenser, followed by 15 minutes incubation on a shaker at room temperature. Finally, luminescence was read at 0.1 ms, with a gain of 3000 using the PHERAstar FS microplate reader (BMG Labtech).

HMC-1-8 = assay: Antiproliferation assay 7, HMC-1-8; format: cell-based; settings: HMC-1-8 cells, CellTiter-Glo, read-out: Antiproli HMC-1-8 IC50 median
Protocol: (§1) Assessment of the Anti-Proliferative Effect of Compounds in Different Cell Lines
(§2) The impact of compounds on the proliferation of different cell lines was assessed using the CellTiter-Glo® Luminescent Cell Viability reagent from Promega (G7573).
(§3) In parallel, cells were plated in a reference (day 0) plate for time zero determination.
(§4) Rim wells were excluded. The cells were incubated for 72 hours in a humidified incubator at 37° C. The day 0 plate was measured by adding 30 μL/well of CTG solution (CellTiter-Glo® Luminescent Cell Viability reagent, Promega G7573) to time zero wells in the reference plate followed by a 10 minutes incubation and luminescence reading at 0.1 ms. using the PHERAstar FS microplate reader (BMG Labtech).
(§5) After 72 hours incubation, the treated plates were measured in the same way as the day 0 plate mentioned above.

SUDHL5 [2] = assay: Antiproliferation assay 7, SUDHL5; format: cell-based; settings: SUDHL5 cells, CellTiter-Glo, read-out: Antiproli SUDHL5 IC50 (median)
Protocol: as §1, §2, §3, §4, §5

SUDHL10 [3] = assay: Induction of cytotoxicity (Assay 6), SUDHL10
SUDHL10 [4] = assay: Induction of caspase-3/7 activity (Assay 4), SUDHL10; format: cell-based; settings: SUDHL10 cells
Protocol: (§6) Induction of Caspase-3/7 Activity Upon Treatment of Cells with Selected Compounds
In contrast, MCL-1 inhibitors are expected to antagonize this effect leading to an increase in apoptosis, which can be determined by measuring the activity of caspase-3/7.
(§7) The activity of caspase-3/7 was determined in DLBCL (Diffuse large B-cell lymphoma) cell lines (SUDHL5 and SUDHL10) upon treatment with different compounds, using the Caspase-Glo®3/7 reagent from Promega (G8092).
(§8) Rim wells were excluded. The cells were incubated for 3 hours in a humidified incubator at 37° C.
(§9) For the evaluation of the results, the background measured with “medium-only” was subtracted from all other values.

AMO-1 = assay: Antiproliferation assay 7, AMO-1; format: cell-based; settings: AMO-1 cells, CellTiter-Glo, read-out: Antiproli AMO-1 IC50 median
Protocol: as §1, §2, §3, §4, §5

SUDHL5 [5] = assay: Induction of caspase-3/7 activity (Assay 4), SUDHL5; format: cell-based; settings: SUDHL5 cells
Protocol: as §6
The BH3-domain of MCL-1 sequesters pro-apoptotic proteins, thereby inhibiting apoptosis. In contrast, MCL-1 inhibitors are expected to antagonize this effect leading to an increase in apoptosis, which can be determined by measuring the activity of caspase-3/7.
as §7, §8, §9

[6] = Homo sapiens, SU-DHL-5, 5 h, read-out: Cytotox SUDHL5 IC50 (median), SUDHL5 cells, 5 hours, CellTiter-Glo
[7] = Homo sapiens, SU-DHL10, 5 h, read-out: Cytotox SUDHL10 IC50 (median), SUDHL10 cells, 5 hours, CellTiter-Glo
[8] = Homo sapiens, SU-DHL10, 3 h, Caspase-Glo 3/7, read-out: Caspase SUDHL10 EC50 (median)
[9] = Homo sapiens, SU-DHL-5, 3 h, Caspase-Glo 3/7, read-out: Caspase SUDHL5 EC50 (median)
[10] = read-out: Cytotox SUDHL5 IC50 (median), SUDHL5 cells, 5 hours, CellTiter-Glo
[11] = read-out: Cytotox SUDHL10 IC50 (median), SUDHL10 cells, 5 hours, CellTiter-Glo
[12] = 3 hours, Caspase-Glo 3/7, read-out: Caspase SUDHL10 EC50 (median)
[13] = 3 hours, Caspase-Glo 3/7, read-out: Caspase SUDHL5 EC50 (median)

Compound | IC50 (SUDHL5 [1]; [6]) | IC50 (HMC-1-8; 72 h) | IC50 (SUDHL5 [2]; Homo sapiens, SU-DHL-5, 72 h) | IC50 (SUDHL10 [3]; [7]) | EC50 (SUDHL10 [4]; [8]) | IC50 (AMO-1; Homo sapiens, AMO1, 72 h) | EC50 (SUDHL5 [5]; [9]) | IC50 (SUDHL5 [1]; [10]) | IC50 (HMC-1-8; 72 hours) | IC50 (SUDHL5 [2]; 72 hours) | IC50 (SUDHL10 [3]; [11]) | EC50 (SUDHL10 [4]; [12]) | IC50 (AMO-1; 72 hours) | EC50 (SUDHL5 [5]; [13])
CCc1c2c(nn1C)CCCCCCn1c(C(=O)O)c(CCCOc3cccc4cc(F)ccc34)c3ccc(Cl)c-2c31 (racemic) [Example 54, (rac)-4-chloro-3-ethyl-7-{3-[(6-fluoronaphthalen-1-yl)oxy]propyl}-2-methyl-10,11,12,13,14,15-hexahydro-2H-pyrazolo[4′,3′:4,5]azacycloundecino[3,2,1-hi]indole-8-carboxylic Acid] | 670 nM | 2210 nM | 430 nM | 740 nM | 520 nM | 1350 nM | 600 nM |  |  |  |  |  |  | 
Cc1c2c(nn1C)CN(CC(F)(F)F)CCCCn1c(C(=O)O)c(CCCOc3cccc4cc(F)ccc34)c3ccc(Cl)c-2c31 (single isomer, unassigned; enantiomer 1) [Example 59, 4-chloro-7-{3-[(6-fluoronaphthalen-1-yl)oxy]propyl}-2,3-dimethyl-14-(2,2,2-trifluoroethyl)-10,11,12,13,14,15-hexahydro-2H-pyrazolo[3′,4′:8,9][1,6]diazacycloundecino[10,11,1-hi]indole-8-carboxylic Acid—Enantiomer 1] |  |  |  |  |  |  |  | 310 nM | 1120 nM | 340 nM | 550 nM | 490 nM | 216 nM | 240 nM
Cc1c2c(nn1C)COCC(F)(F)CCn1c(C(=O)O)c(CCCOc3cccc4ccccc34)c3ccc(Cl)c-2c31 (single isomer, unassigned; enantiomer 1) [Example 56, 4-chloro-12,12-difluoro-2,3-dimethyl-7-{3-[(naphthalen-1-yl)oxy]propyl}-2,10,11,12,13,15-hexahydropyrazolo[4′,3′:9,10][1,6]oxazacycloundecino[8,7,6-hi]indole-8-carboxylic acid-N-ethylethanamine Salt—Enantiomer 1] |  | 8270 nM |  |  |  |  |  | 590 nM |  | 1100 nM | 1600 nM | 1800 nM | 1770 nM | 690 nM
Cc1c2c(nn1C)OCCCCCn1c(C(=O)O)c(CCCOc3cccc4cc(F)ccc34)c3ccc(Cl)c-2c31 (racemic) [Example 83, (rac)-4-chloro-7-{3-[(6-fluoronaphthalen-1-yl)oxy]propyl}-2,3-dimethyl-11,12,13,14-tetrahydro-2H,10H-pyrazolo[3′,4′:2,3][1,6]oxazacycloundecino[4,5,6-hi]indole-8-carboxylic Acid] |  |  |  |  |  |  |  | 660 nM | 7900 nM | 380 nM | 1100 nM | 980 nM | 730 nM | 610 nM
Cc1c2c(nn1C)OCCCCCn1c(C(=O)O)c(CCCOc3cccc4cc(F)ccc34)c3ccc(Cl)c-2c31 (single isomer, unassigned; enantiomer 2) [Example 85, 4-chloro-7-{3-[(6-fluoronaphthalen-1-yl)oxy]propyl}-2,3-dimethyl-11,12,13,14-tetrahydro-2H,10H-pyrazolo[3′,4′:2,3][1,6]oxazacycloundecino[4,5,6-hi]indole-8-carboxylic Acid—Enantiomer 2] |  |  |  |  |  |  |  | 17000 nM | > 30000 nM | 13000 nM | 25000 nM | 25000 nM | 6100 nM | 9700 nM
Cc1c2c(nn1C)CN(CC(F)(F)F)CCCCn1c(C(=O)O)c(CCCOc3cccc4cc(F)ccc34)c3ccc(Cl)c-2c31 (racemic) [Example 58, (rac)-4-chloro-7-{3-[(6-fluoronaphthalen-1-yl)oxy]propyl}-2,3-dimethyl-14-(2,2,2-trifluoroethyl)-10,11,12,13,14,15-hexahydro-2H-pyrazolo[3′,4′:8,9][1,6]diazacycloundecino[10,11,1-hi]indole-8-carboxylic Acid] | 340 nM | 1720 nM | 250 nM | 530 nM | 440 nM | 683 nM | 330 nM |  |  |  |  |  |  | 
Cc1c2c(nn1C)COCC(F)(F)CCn1c(C(=O)O)c(CCCOc3cccc4ccccc34)c3ccc(Cl)c-2c31 (single isomer, unassigned; enantiomer 2) [Example 57, 4-chloro-12,12-difluoro-2,3-dimethyl-7-{3-[(naphthalen-1-yl)oxy]propyl}-2,10,11,12,13,15-hexahydropyrazolo[4′,3′:9,10][1,6]oxazacycloundecino[8,7,6-hi]indole-8-carboxylic acid-N-ethylethanamine Salt—Enantiomer 2] |  |  |  |  |  |  |  | 6900 nM | 8680 nM | 3900 nM | 10000 nM | 13000 nM | 11800 nM | 7600 nM
CCc1c2c(nn1C)N(CCC1CCOCC1)CCCCCn1c(C(=O)O)c(CCCOc3cccc4cc(F)ccc34)c3ccc(Cl)c-2c31 (single isomer, unassigned; enantiomer 1) [Example 81, 4-chloro-3-ethyl-7-{3-[(6-fluoronaphthalen-1-yl)oxy]propyl}-2-methyl-15-[2-(oxan-4-yl)ethyl]-10,11,12,13,14,15-hexahydro-2H-pyrazolo[4′,3′:4,5][1,6]diazacycloundecino[3,2,1-hi]indole-8-carboxylic acid N-ethylethanamine Salt—Enantiomer 1] |  | 1900 nM |  |  |  | 120 nM |  | 290 nM |  | 320 nM | 230 nM | 170 nM |  | 220 nM
CCc1c2c(nn1C)CN(CC(F)(F)F)CCCCn1c(C(=O)O)c(CCCOc3cccc4cc(F)ccc34)c3ccc(Cl)c-2c31 (racemic) [Example 61, (rac) 4-chloro-3-ethyl-7-{3-[(6-fluoronaphthalen-1-yl)oxy]propyl}-2-methyl-14-(2,2,2-trifluoroethyl)-10,11,12,13,14,15-hexahydro-2H-pyrazolo[3′,4′:8,9][1,6]diazacycloundecino[10,11,1-hi]indole-8-carboxylic Acid] | 540 nM | 7150 nM |  |  |  | 1870 nM | 330 nM |  |  |  |  |  |  | 
Cc1c2c(nn1C)CN(CC(F)(F)F)CCCCn1c(C(=O)O)c(CCCOc3cccc4cc(F)ccc34)c3ccc(Cl)c-2c31 (single isomer, unassigned; enantiomer 2) [Example 60, 4-chloro-7-{3-[(6-fluoronaphthalen-1-yl)oxy]propyl}-2,3-dimethyl-14-(2,2,2-trifluoroethyl)-10,11,12,13,14,15-hexahydro-2H-pyrazolo[3′,4′:8,9][1,6]diazacycloundecino[10,11,1-hi]indole-8-carboxylic Acid—Enantiomer 2] |  |  |  |  |  |  |  | 12000 nM | > 30000 nM | 20000 nM | 26000 nM | 27000 nM | 25500 nM | 9000 nM
CCc1c2c(nn1C)CCCCCCn1c(C(=O)O)c(CCCOc3cccc4ccccc34)c3ccc(Cl)c-2c31 (single isomer, unassigned; enantiomer 2) [Example 53, (−) 4-chloro-3-ethyl-2-methyl-7-{3-[(naphthalen-1-yl)oxy]propyl}-10,11,12,13,14,15-hexahydro-2H-pyrazolo[4′,3′:4,5]azacycloundecino[3,2,1-hi]indole-8-carboxylic acid-N-ethylethanamine Salt—Enantiomer 2] |  |  |  |  |  |  |  | 2500 nM | 16800 nM |  |  |  | 11200 nM | 3500 nM
Cc1c2c(nn1C)COCC1CCC1Cn1c(C(=O)O)c(CCCOc3cccc4ccccc34)c3ccc(Cl)c-2c31 (single isomer, unassigned; stereoisomer 1) [Example 63] | 1500 nM | 7850 nM | 2600 nM |  |  |  | 1400 nM |  |  |  | 3300 nM | 3100 nM | 2560 nM | 
